This passage reports viability results from paper PMC12040169 (PLOS Biology, 2025).

The structures appear in SMILES notation.

The data set in a line: in vitro. As to conditions: human, hela cells, % viability.

On to `Cc1noc(C)c1S(=O)(=O)Nc1nc(=O)[nH]cc1F` [CBK067569], for which the viability at 28.5 h, 10 µM stood at 103%. In the case of `O=c1nc(NS(=O)(=O)c2ccc(Oc3ccccc3)cc2)c(F)c[nH]1` [CBK067571], the viability at 28.5 h, 10 µM was 89.3%. `O=c1nc(NS(=O)(=O)c2ccccc2Br)c(F)c[nH]1` [CBK067573]: the viability at 28.5 h, 10 µM worked out at 76.6%. Regarding `Cn1nc(-c2ccc(S(=O)(=O)Nc3nc(=O)[nH]cc3F)s2)cc1C(F)(F)F` [CBK067574], the viability at 28.5 h, 10 µM was determined as 96.8%.

As to `Nc1ncc(-c2ccsc2)c2cccnc12` [CBK067580], the viability at 28.5 h, 10 µM came to 97.5%. With `CSc1ccc(-c2cnc(N)c3ncccc23)cc1` [CBK067584], the viability at 28.5 h, 10 µM came out at 68.4%. Regarding `COc1cc(F)ccc1-c1cnc(N)c2ncccc12` [CBK067585], the viability at 28.5 h, 10 µM was determined as 81.4%.

In the case of `CC(C)(C)c1ccc(-c2cnc(N)c3ncccc23)cc1` [CBK067589], the viability at 28.5 h, 10 µM was found to be 99.2%.

For `Nc1ncc(-c2cccc(C(F)(F)F)c2)c2cccnc12` [CBK067590], the viability at 28.5 h, 10 µM is 89.2%.

For the compound `Nc1ncc(-c2ccc(-c3ccccc3F)cc2)c2cccnc12` [CBK067597], the viability at 28.5 h, 10 µM was 76.5%.

Regarding `Nc1cc2cccnc2nc1-c1ccncc1` [CBK067601], the viability at 28.5 h, 10 µM worked out at 96.5%. Regarding `CC(C)(C)c1ccc(-c2nc3ncccc3cc2N)cc1` [CBK067611], the viability at 28.5 h, 10 µM came out at 94.4%. To `Nc1cc2cccnc2nc1-c1ccc(OC(F)(F)F)cc1` [CBK067616] belongs 93.8%; to `Nc1ccc2ccc(-c3ccncc3)nc2n1` [CBK067622], 82.8%. In the case of `Nc1ccc2ccc(-c3cccc(C(F)(F)F)c3)nc2n1` [CBK067629] it was 97.5%. To `Nc1ccc2c(-c3ccsc3)ccnc2n1` [CBK067637] belongs 95.5%; to `Nc1ccc2c(-c3cc(F)cc(F)c3)ccnc2n1` [CBK067638], 93.4%; to `O=C(CC1SC(NC2CCCCCC2)=NC1=O)NCc1c(F)cccc1Cl` (stereo not shown) [CBK067656], 89.7%. With `Cn1c(SCc2cccnc2)nnc1-c1cccs1` [CBK067706], the viability at 28.5 h, 10 µM is 93.1%.

`Cn1cnnc1SCC(=O)c1cccc(C(F)(F)F)c1` [CBK067718]: the viability at 28.5 h, 10 µM stood at 93.5%. Regarding `CSc1nnc(-c2ccco2)n1-c1cccc(Cl)c1C` [CBK067723], the viability at 28.5 h, 10 µM worked out at 93.1%.

With `CCOC(=O)c1sc(-c2ccccc2)nc1OCc1ccccc1Cl` [CBK067727], the viability at 28.5 h, 10 µM came to 95.8%. To `O=C(O)Cc1sc(-c2ccc(Cl)cc2)nc1O` [CBK067730] belongs 93.1%; to `CCOC(=O)c1nc(-c2ccccc2)sc1C(C)=O` [CBK067739], 98.8%. On to `COC(=O)COc1ccccc1/C=C1\SC(c2ccc(C)cc2)=NC1=O` [CBK067741], for which the viability at 28.5 h, 10 µM was found to be 92.6%. In the case of `COC(=O)c1sccc1OCc1nnc(-c2ccc(Cl)c(Cl)c2)o1` [CBK067742] it was 96.5%; in that of `CSc1oc(-c2ccccc2)nc1C(N)=O` [CBK067744], 98.4%. Take `CCOC(=O)c1sc(NC(=O)c2ccccc2Br)nc1C` [CBK067745]: the viability at 28.5 h, 10 µM worked out at 90.2%. For the compound `NC(=O)c1csc(-c2ccc(F)cc2F)n1` [CBK067749], the viability at 28.5 h, 10 µM came to 68.6%. To `CCCC1=NNC(=O)C1Cc1c(F)cccc1Cl` (stereo not shown) [CBK067753] belongs 88.8%. To `CC1=NNC(=O)C1Cc1c(Cl)cccc1Cl` (stereo not shown) [CBK067754] belongs 109%; to `CC1=NNC(=O)C1Cc1ccc(F)cc1` (stereo not shown) [CBK067755], 97.4%.

For `CC1=NNC(=O)C1C(c1ccc(Cl)cc1Cl)C1C(=O)NN=C1C` (stereo not shown) [CBK067756], the viability at 28.5 h, 10 µM turned out to be 109%. In the case of `O=C1NN=C(Cc2ccccc2)C1c1ccccc1` (stereo not shown) [CBK067757] it was 95.6%; in that of `O=C1NN=C(O)C1Cc1ccccc1` (stereo not shown) [CBK067758], 101%. In the case of `Cc1nn(C)c(O)c1Cc1c(F)cccc1Cl` [CBK067759] it was 92.5%; in that of `CCCC1=NNC(=O)/C1=C\c1cnc[nH]1` [CBK067767], 105%.

For the compound `CC1=NN(c2ccccc2)C(=O)/C1=C\c1ccc(Cl)cc1` [CBK067772], the viability at 28.5 h, 10 µM was 96.7%.

`CC1=NN(c2ccccc2F)C(=O)C1` [CBK067773]: the viability at 28.5 h, 10 µM stood at 96.8%. To `COC(=O)c1csc(-c2ccc(Cl)cc2Cl)n1` [CBK067776] belongs 103%.

As for `O=C(O)c1csc(-c2ccc(Cl)cc2Cl)n1` [CBK067777], the viability at 28.5 h, 10 µM came out at 90%. In the case of `CC(C)CN(CCc1ccc(O)cc1)CC(=O)NC1(c2ccccc2)CCC1` [CBK067781T], the viability at 28.5 h, 10 µM turned out to be 100%. In the case of `Cc1nn(C)c(Cl)c1S(=O)(=O)Nc1cc(N2CCN(C(=O)OC(C)(C)C)CC2)c2occc2c1` [CBK067787] it was 95.8%; in that of `CN1CC[C@]2(c3ccc4c(c3)nnn4C)CC[C@@H](NC(=O)Nc3cc(F)cc(C(F)(F)F)c3)C[C@H]12` [CBK067800], 99.2%.

With `CC1(C)SC(NCC2CCCCC2)=NC1=O` [CBK067808], the viability at 28.5 h, 10 µM worked out at 91.2%. As to `CN(C)C(=O)c1sc2ccccc2c1Cl` [CBK067817], the viability at 28.5 h, 10 µM was 82.4%.

With `COc1ccc(C)cc1S(=O)(=O)Nc1cc(NCCCN2CCOCC2)c2occc2c1` [CBK067837C], the viability at 28.5 h, 10 µM amounted to 105%. Turning to `O=S(=O)(Nc1cc(NCCCN2CCOCC2)c2occc2c1)c1ccccc1C(F)(F)F` [CBK067838C], the viability at 28.5 h, 10 µM was 94.9%.

Turning to `COc1ccc(C)cc1S(=O)(=O)N(CCO)c1cc(N2CCNCC2)c2occc2c1` [CBK067894C], the viability at 28.5 h, 10 µM turned out to be 86%.

On to `Cc1ccc(S(=O)(=O)Nc2ccnc(-c3ccc(CN4C(=O)CSC4=O)cc3)n2)cc1` [CBK067925], for which the viability at 28.5 h, 10 µM came out at 96.1%.

Turning to `COc1ccc([C@@]23CC[C@@H](NC(=O)Nc4ccc(F)c(F)c4)C[C@@H]2N(C)CC3)cc1C#N` [CBK067952T], the viability at 28.5 h, 10 µM came to 107%. In the case of `CC(C)(C)c1ccc(-c2nnc(SCC(=O)c3ccc(F)cc3)o2)cc1` [CBK067988] it was 102%.

For `O=C(Nc1nc(-c2ccccc2)cs1)c1ccc(Br)cc1` [CBK068003], the viability at 28.5 h, 10 µM turned out to be 82.4%. Turning to `O=C(O)CSc1nnc(-c2ccc(F)cc2)o1` [CBK068115], the viability at 28.5 h, 10 µM was 104%.

As for `Cc1cccc(C)c1NC(=O)C(C)Sc1nc2ccccc2c(=O)n1CC1CCCO1` (stereo not shown) [CBK068151], the viability at 28.5 h, 10 µM turned out to be 95%. In the case of `Cc1nnc(NS(=O)(=O)c2ccc(Br)cc2)s1` [CBK068266] it was 101%; in that of `CCOc1ccc(-c2nnn(CC(N)=O)n2)cc1` [CBK068283], 110%; in that of `O=C(c1ccccc1)N1CCN(C(=O)c2ccco2)CC1` [CBK068314], 96.6%. In the case of `CC(=O)Nc1ccc(S(=O)(=O)N2CCN(C(=O)c3ccco3)CC2)cc1` [CBK068319], the viability at 28.5 h, 10 µM is 90.5%. In the case of `O=C(Cc1ccccc1)N1CCN(C(=O)c2ccco2)CC1` [CBK068325] it was 93.4%.

Consider `CC(=O)CSc1nnc(-c2ccc(F)cc2)o1` [CBK068327], for which the viability at 28.5 h, 10 µM was 110%.

Usually viability stands for a read-out of living cells in per cent, often relative to untreated cells.
